This passage reports EC50 and bioavailability results from patent US20160362416A1, “ANTIVIRAL COMPOUNDS” (Gilead Sciences, Inc., priority 2012, published 2016).

The subject of data set [1] is Y93H in genotype 3a NS5A replicon. As to the kind of experiment: Resistance mutant replicon assay, genotype 3a NS5A Y93H. It counts as cell-based, HCV. The conditions noted are these: Hepatitis C virus, read-out: 3a Y93H (nM). A digest of the protocol: (§1)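 Renilla luciferase signal after 72 h compound exposure gave EC50 via non-linear regression. Cells were Huh-7-derived cured-51 transiently transfected with replicon RNA carrying the NS5A mutation introduced by site-directed mutagenesis into 1a or 1b Pi-RLuc replicons.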

In data set [2] the test system is stable HCV 1a RLuc replicon cells (genotype 1a H77 replicon). As to the kind of experiment: HCV genotype 1a RLuc replicon reporter assay. It is filed as cell-based. The settings on record: Hepatitis C virus; stable genotype 1a H77 RLuc replicon cells, 72 hours. Background: In antiviral work, replicon cells carry a viral genome segment that copies itself.
For data set [3], the system named is Q30E in genotype 1a NS5A replicon. The experiment in a line: Resistance mutant replicon assay, genotype 1a NS5A Q30E. It is filed as cell-based, HCV. The settings on record: Hepatitis C virus, read-out: 1a Q30E (nM). The gist of the method:
as §1

Data set [4] concerns L31V/Y93H in genotype 1b NS5A replicon. The experiment in a line: Resistance mutant replicon assay, genotype 1b NS5A L31V/Y93H. It counts as cell-based, HCV. The settings on record: Hepatitis C virus, read-out: 1b L31V/Y93H (nM). The protocol: (§2) Evaluation of cell-based anti-HCV activity: Antiviral potency (EC50) was determined using a Renilla luciferase (RLuc)-based HCV replicon reporter assay. To perform the assay for genotype 1 and 2a JFH-1, stable HCV 1a RLuc replicon cells (harboring a dicistronic genotype 1a H77 replicon that encodes a RLuc reporter), stable HCV lb RLuc replicon cells (harboring a dicistronic genotype 1b Conl replicon that encodes a RLuc reporter), or stable HCV 2a JFH-1 Rluc replicon cells (harboring a dicistronic genotype 2a JFH-1 replicon that encodes a RLuc reporter; with L31 present in NS5A) were dispensed into 384-well plates for EC50 assays. To perform the assay for genotype 2a (with M31 present in NS5A) or 2b, NS5A chimeric genotype 2a JFH-1 replicons that encodes a RLuc-Neo reporter and either genotype 2a J6 strain NS5A gene or genotype 2b MD2b-1 strain NS5A gene (both with M31 present) respectively, were either transiently transfected (t) into Huh-Lunet cells or were established as stably replicating replicon cells (s) is provided. Either cells were dispensed into 384-well plates for EC50 assays. To perform the assay for genotype 3 and 4, NS5A chimeric genotype 1b Conl replicons that encodes a Pi-RLuc reporter and either genotype 3a S52 strain NS5A gene or genotype 4a ED43 strain NS5A gene respectively, were transiently transfected (t) into Huh-Lunet cells, which were subsequently dispensed into 384-well plates. Compounds were dissolved in DMSO at a concentration of 10 mM and diluted in DMSO either manually or using an automated pipeting instrument. Serially 3-fold diluted compounds were either manually mixed with cell culture media and added to the seeded cells or directly added to the cells using an automated instrument. DMSO was used as a negative (solvent; no inhibition) control, and the protease inhibitor ITMN-191 was included at a concentration >100×EC50 as a positive control. 72 hours later, cells were lysed and Renilla luciferase activity quantified as recommended by the manufacturer (Promega-Madison, Wis.). Non-linear regression was performed to calculate EC50 values.
(§3) To determine the antiviral potency (EC50) against resistance mutants, resistance mutations, including M28T, Q30R, Q30H, Q30E, L31M, Y93C, Y93H, and Y93N in genotype 1a NS5A, Y93H and L31V/Y93H in genotype 1b NS5A, and Y93H for in genotype 3a NS5A, were introduced individually into either 1a Pi-Rluc or 1b Pi-Rluc replicons by site directed mutagenesis. Replicon RNA of each resistant mutant was transiently transfected into Huh-7-derived cured-51 cells and antiviral potency was determined on these transfected cells as described above.

The test system of data set [5] is Y93N in genotype 1a NS5A replicon. The experiment in a line: Resistance mutant replicon assay, genotype 1a NS5A Y93N. It is filed as cell-based, HCV. The settings on record: Hepatitis C virus, read-out: 1a Y93N (nM). The gist of the method:
as §1

Data set [6] in a line: IV and PO single dose pharmacokinetic studies in SD rats. The settings on record: Sprague-Dawley, rat, plasma, male SD rats, IV infusion 1 mg/kg, oral gavage 2 mg/kg, read-out: Rat % F. It counts as in vivo. The protocol: IV and PO Single Dose Pharmacokinetic Studies in SD Rats: The pharmacokinetics of selected compounds was characterized in male Sprague-Dawley (SD) rats (250-300 g). In this study, two groups of naïve purebred SD rats (N=3 per group, fasted over night) received the selected compound either as an intravenous (IV) infusion (1 mg/kg over 30 minutes) via the jugular vein or by oral gavage (2 mg/kg). The intravenous (IV) dosing vehicle was 5% ethanol, 35% polyethylene glycol 400 (PEG 400) and 60% water pH 2.0. The oral dosing vehicle was 5% ethanol, 55% PEG 400 and 40% citrate buffer pH 2.2.
Serial blood samples (approximately 0.3 mL each) were collected from jugular vein or other suitable vein at specified time points. For the IV infusion group, the blood samples were collected predose and at 0.25, 0.48, 0.58, 0.75, 1.5, 3, 6, 8, 12 and 24 hours after the start of infusion. For the oral group, the blood samples were collected predose and at 0.25, 0.50, 1, 2, 4, 6, 8, 12 and 24 hours after dosing. The blood samples were collected into Vacutainer™ tubes containing EDTA-K3 as the anti-coagulant and were centrifuged at approximately 4° C. to obtain plasma. The plasma samples were stored at −20° C. until analysis by LC/MS/MS.
A bioanalytical method utilizing high performance liquid chromatography coupled to tandem mass spectrometry (LC/MS/MS) was developed for analysis of the selected compound in rat plasma. Detection was performed using selected reaction monitoring (SRM); Ions representing the precursor (M+H)^+ species was selected in quadrupole 1 (Q1) and collided with argon gas in the collision cell (Q2) to generate specific product ion, which was subsequently monitored by quadrupole 3 (Q3). Standard curve and quality control samples were prepared in male rat plasma and processed in the same way as the test samples to generate quantitative data.
Pharmacokinetic parameters were generated using non-compartmental pharmacokinetic analysis (Phoenix WinNonlin, version 6.3). Values below the lower limit of quantification (LLOQ) were assigned a value of zero if predose and treated as missing thereafter. Area under the curve (AUC) was calculated using the linear trapezoidal rule. The oral bioavailability (% F) was determined by comparison of the area under the curve (AUC) of the compound and/or a metabolite generated in plasma following oral administration to that generated following intravenous administration.

In data set [7] the test system is stable HCV 1b RLuc replicon cells (genotype 1b Con1 replicon). As to the kind of experiment: HCV genotype 1b RLuc replicon reporter assay. It counts as cell-based. The settings on record: Hepatitis C virus; stable genotype 1b Con1 RLuc replicon cells, 72 hours. The gist of the method: (§4)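 Stable 1b Con1 RLuc replicon cells, or Huh-Lunet cells transiently transfected with chimeric replicons (Con1 backbone carrying 3a S52 or 4a ED43 NS5A; JFH-1 backbone carrying 2b MD2b-1 NS5A, M31), treated with 3-fold dilutions for 72 h. Renilla luciferase read after lysis; EC50 by non-linear regression.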

Data set [8] concerns NS5A chimeric genotype 2a JFH-1 replicon with genotype 2b MD2b-1 strain NS5A gene (M31). As to the kind of experiment: HCV genotype 2b NS5A chimeric replicon assay, stable (s). The conditions noted are these: Hepatitis C virus, 72 h, read-out: 2b (s) (nM). It is filed as cell-based.
Data set [9] concerns NS5A chimeric genotype 1b Con1 replicon with genotype 3a S52 strain NS5A gene. As to the kind of experiment: HCV genotype 3a NS5A chimeric replicon assay. It is filed as cell-based. The conditions noted are these: Hepatitis C virus, 72 h, read-out: 3a (nM). A digest of the protocol:
as §4

Data set [10] deals with stable HCV 2a JFH-1 Rluc replicon cells (L31 present in NS5A). As to the kind of experiment: HCV genotype 2a JFH-1 RLuc replicon reporter assay. The settings on record: Hepatitis C virus, 72 h, read-out: 2a JFH (nM). It is filed as cell-based.
Data set [11] relates to NS5A chimeric genotype 2a JFH-1 replicon with genotype 2b MD2b-1 strain NS5A gene (M31). As to the kind of experiment: HCV genotype 2b NS5A chimeric replicon assay, transient (t). It counts as cell-based. The settings on record: Hepatitis C virus, 72 h, read-out: 2b (t) (nM). The gist of the method:
as §4

The subject of data set [12] is Y93H in genotype 1a NS5A replicon. As to the kind of experiment: Resistance mutant replicon assay, genotype 1a NS5A Y93H. It is filed as cell-based, HCV. The conditions noted are these: Hepatitis C virus, read-out: 1a Y93H (nM). A digest of the protocol:
as §1

In data set [13] the test system is NS5A chimeric genotype 1b Con1 replicon with genotype 4a ED43 strain NS5A gene. The experiment in a line: HCV genotype 4a NS5A chimeric replicon assay. The conditions noted are these: Hepatitis C virus, 72 h, read-out: 4a (s) (nM). It is filed as cell-based.
For data set [14], the system named is Q30R in genotype 1a NS5A replicon. The experiment in a line: Resistance mutant replicon assay, genotype 1a NS5A Q30R. The settings on record: Hepatitis C virus, read-out: 1a Q30R (nM). It counts as cell-based, HCV. The protocol:
as §2, §3

Data set [15] deals with NS5A chimeric genotype 2a JFH-1 replicon with genotype 2a J6 strain NS5A gene (M31). As to the kind of experiment: HCV genotype 2a J6 NS5A chimeric replicon assay, transient (t). It is filed as cell-based. The settings on record: Hepatitis C virus, 72 h, read-out: 2a J6 (t) (nM).

Structures are written as SMILES.

`CC[C@H]1C[C@@H](c2nc3ccc4cc5c(cc4c3[nH]2)OCc2cc(-c3cnc([C@@H]4CC[C@H](C)N4C(=O)[C@@H](NC(=O)OC)C(C)C)[nH]3)ccc2-5)N(C(=O)[C@@H](NC(=O)OC)C2CCOCC2)C1` [Comp 1, reference compound]: the EC50 in data set [1] amounted to 8.07 nM; in data set [2], 18 pM; in [3], 0.319 nM; in data set [4], 0.971 nM; in data set [5], 2.05 nM; in [7] it was 27 pM. Also, the bioavailability in data set [6] came to 9.9%.
With `COC(=O)N[C@H](C(=O)N1[C@@H](C)CC[C@H]1c1ncc(-c2ccc3c(c2)COc2cc4c(ccc5nc([C@@H]6CC[C@H](C)N6C(=O)[C@@H](NC(=O)OC)C6CCOCC6)[nH]c54)cc2-3)[nH]1)C1CCOCC1` [Comp 6, reference compound], the EC50 in [1] is 0.252 nM; in [2] it was 24 pM; in data set [8] it was 0.038 nM; in data set [3] it was 0.101 nM; in data set [9], 0.075 nM; in data set [10], 0.012 nM. The EC50 in data set [11] came out at 0.092 nM; in data set [12], 0.442 nM; in data set [13], 0.014 nM; in [14], 0.042 nM; in [15], 0.012 nM; in data set [7] it was 51 pM.
As to `CC[C@H](C)[C@H](NC(=O)OC)C(=O)N1[C@H](c2ncc(-c3ccc4c(c3)COc3cc5c(ccc6nc([C@@H]7CC[C@H](C)N7C(=O)[C@@H](NC(=O)OC)C7CCOCC7)[nH]c65)cc3-4)[nH]2)C[C@@H]2CCC[C@@H]21` [Comp 9, reference compound], the EC50 came to 40.9 nM in data set [1]; 28 pM in [2]; 10.6 nM in data set [5]; 3.5 nM in [12]; 40.9 nM in data set [13]; 0.26 nM in data set [14]. Further, the EC50 in data set [7] amounted to 34 pM. In addition, the bioavailability in [6] amounted to 0.571%.
Take `COC(=O)N[C@H](C(=O)N1[C@@H](C)CC[C@H]1c1ncc(-c2ccc3c(c2)COc2cc4c(ccc5nc([C@@H]6C[C@@H]7CCC[C@@H]7N6C(=O)[C@@H](NC(=O)OC)C6CCOCC6)[nH]c54)cc2-3)[nH]1)C(C)C` [Comp 10, reference compound]: the EC50 in data set [1] is 21.8 nM; in data set [2], 15 pM; in data set [3] it was 0.716 nM; in data set [4], 0.024 nM; in data set [5] it was 3.74 nM; in data set [13], 21.8 nM. In addition, the results for the EC50 in data set [14], in data set [15] and in [7] were 0.123 nM, 0.024 nM and 24 pM, respectively.
`COC(=O)N[C@H](C(=O)N1[C@@H](C)CC[C@H]1c1ncc(-c2ccc3c(c2)COc2cc4c(ccc5nc([C@@H]6CC[C@H](C)N6C(=O)[C@@H](NC(=O)OC)[C@H]6CCCOC6)[nH]c54)cc2-3)[nH]1)C(C)C` [Example AI, Methyl{(1S)-2-[(2S,5S)-2-methyl-5-(9-{2-[(2S,5S)-1-{(2S)-2-[(methoxycarbonyl)amino]-3-methylbutanoyl}-5-methylpyrrolidin-2-yl]-1H-imidazol-5-yl}-1,11-dihydroisochromeno[4′,3′:6,7]naphtho[1,2-d]imidazol-2-yl)pyrrolidin-1-yl]-2-oxo-1-[(3R)-tetrahydro-2H-pyran-3-yl]ethyl}carbamate]: the EC50 is 2.84 nM in [1]; 14 pM in data set [2]; 0.058 nM in [8]; 2.11 nM in data set [3]; 21.4 nM in data set [4]; 0.028 nM in data set [9]. Moreover, the EC50 came to 4.05 nM in data set [5]; 0.017 nM in data set [10]; 0.012 nM in data set [13]; 0.208 nM in [14]; 0.041 nM in data set [15]; 18 pM in data set [7].
